Laboratory results as given in US20100003724A1, “CHEMICALLY MODIFIED NUCLEOSIDE 5'-TRIPHOSPHATES FOR THERMALLY INITIATED AMPLIFICATION OF NUCLEIC ACID” (priority 2008, published 2010).
Read-outs that look alike come from different tables or passages of the source.

Experiments:
[1] = target: Klenow (exo-) DNA polymerase (Escherichia coli, UniProt P00582, D355A/E357A); details: for substrate for Klenow (exo-) DNA polymerase (incorporation into the primer): room temperature, unheated 3′-substituted dTTP; for substrate for Klenow (exo-) DNA polymerase (incorporation and extension): after a 40 minute preheating step at 95° C.
Description: The ability of Klenow (exo-) DNA polymerase to perform room temperature primer extensions of a pre-annealed primer/template duplex was evaluated in 50 mM NaCl, 10 mM Tris-HCl (pH 7.9), 10 mM MgCl, 1 mM DTT, 0.5 units of enzyme, 0.2 mM dATP and in the presence of one of the following 3′-substituted dTTP derivatives: 3′-THP-dTTP, 3′-MTHP-dTTP or 3′-THF-dTTP (FIG. 4 (top)).

Taq DNA polymerase = Taq DNA polymerase (Thermus aquaticus, UniProt P19821); test: Primer extension with Taq DNA polymerase at room temperature; details: 25 units of enzyme
Description: The extension experiments were repeated with Taq DNA polymerase at room temperature utilizing 25 units of enzyme and either 3′-THF-dTTP or 3′-Ac-dTTP.

[2] = test system: Lambda DNA and HIV-1 DNA systems; details: one 3′-substituted dTTP derivative in place of natural dTTP; compared to all four natural dNTPs
Description: For the Lambda DNA and HIV-1 DNA systems (Table 2), PCR conditions were used where non-specific amplification products, including primer dimers, readily formed in the presence of template. These conditions employed 1 μM concentration of both the forward and reverse oligonucleotide primers, 10 HIV-1 or 10,000 Lambda DNA copies of template, 0.2 mM each of dNTP or 3′-substituted dNTP, and 2.0 mM MgCl2. Each mixture contained 50 ng of Human Genomic DNA. The thermal cycling parameters were as follows: 95° C. for 2 min; 40 cycles of [95° C. for 40 sec; 56° C. for 30 sec; 72° C. for 2 min]; 72° C. for 7 min.

[3] = for Concentration of unmodified dTTP: 250 μM solution of 3′-substituted dTTP, 95° C., PCR buffer (pH 8.4 at 25° C.); for cleavage of the 3′-ester group: within 60 minutes of incubation
Description: Conversion of the 3′-substituted dTTP to the corresponding unmodified dTTP was investigated in PCR buffer (pH 8.4 at 25° C., Table 1) at 20° C. and 95° C. The reactions were monitored by analysis of the incubated mixtures by reverse-phase and anion-exchange HPLC.

[4] = test system: HIV-1 system (365 bp HIV-1 fragment); test: Hot Start PCR with 3′-THF-dNTPs substituted for natural dNTPs; format: biochemical; details: 3′-THF dNTP substituted for its natural dNTP
Description: Each mixture contained 50 ng of Human Genomic DNA.
All permutations of substitution of one, two, three or four 3′-THF-dNTPs (from the group of 3′-THF-dATP, […], 3′-THF-dCTP and 3′-THF-dTTP) were examined for their natural counterpart and the resultant effect on reducing primer dimer formation. […] A combined substitution of two or more 3′-THF derivatives of dNTPs for natural dNTPs further improved PCR performance. Thus, combination of 3′-THF-dTTP and 3′-THF-dATP, as a replacement for dTTP and dATP, nearly completely eliminated non-specific amplification products in the HIV-1 system (approximately 10-fold improvement, FIG. 7). Overall, there was a strong correlation between using more than one type of 3′-substituted dNTP in a PCR mixture with an efficiency and specificity of amplicon production.

Chain of Klenow (exo-) DNA polymerase (P00582 324-928 D355A/E357A): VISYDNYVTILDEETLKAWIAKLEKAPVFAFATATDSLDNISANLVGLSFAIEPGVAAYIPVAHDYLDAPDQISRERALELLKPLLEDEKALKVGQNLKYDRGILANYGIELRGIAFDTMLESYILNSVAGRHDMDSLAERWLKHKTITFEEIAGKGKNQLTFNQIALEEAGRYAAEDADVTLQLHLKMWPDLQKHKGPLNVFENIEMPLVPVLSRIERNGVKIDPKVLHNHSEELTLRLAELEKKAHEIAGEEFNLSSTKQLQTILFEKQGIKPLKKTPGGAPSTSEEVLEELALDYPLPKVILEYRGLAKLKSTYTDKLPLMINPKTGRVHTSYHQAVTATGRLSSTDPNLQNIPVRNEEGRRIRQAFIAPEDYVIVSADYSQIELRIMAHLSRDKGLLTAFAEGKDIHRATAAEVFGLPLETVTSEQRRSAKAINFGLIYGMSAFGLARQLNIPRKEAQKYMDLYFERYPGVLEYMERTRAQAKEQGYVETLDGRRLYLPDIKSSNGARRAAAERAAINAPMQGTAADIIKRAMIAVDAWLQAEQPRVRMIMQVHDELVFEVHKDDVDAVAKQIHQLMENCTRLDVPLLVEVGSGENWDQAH
Chain of Taq DNA polymerase (P19821 whole entry): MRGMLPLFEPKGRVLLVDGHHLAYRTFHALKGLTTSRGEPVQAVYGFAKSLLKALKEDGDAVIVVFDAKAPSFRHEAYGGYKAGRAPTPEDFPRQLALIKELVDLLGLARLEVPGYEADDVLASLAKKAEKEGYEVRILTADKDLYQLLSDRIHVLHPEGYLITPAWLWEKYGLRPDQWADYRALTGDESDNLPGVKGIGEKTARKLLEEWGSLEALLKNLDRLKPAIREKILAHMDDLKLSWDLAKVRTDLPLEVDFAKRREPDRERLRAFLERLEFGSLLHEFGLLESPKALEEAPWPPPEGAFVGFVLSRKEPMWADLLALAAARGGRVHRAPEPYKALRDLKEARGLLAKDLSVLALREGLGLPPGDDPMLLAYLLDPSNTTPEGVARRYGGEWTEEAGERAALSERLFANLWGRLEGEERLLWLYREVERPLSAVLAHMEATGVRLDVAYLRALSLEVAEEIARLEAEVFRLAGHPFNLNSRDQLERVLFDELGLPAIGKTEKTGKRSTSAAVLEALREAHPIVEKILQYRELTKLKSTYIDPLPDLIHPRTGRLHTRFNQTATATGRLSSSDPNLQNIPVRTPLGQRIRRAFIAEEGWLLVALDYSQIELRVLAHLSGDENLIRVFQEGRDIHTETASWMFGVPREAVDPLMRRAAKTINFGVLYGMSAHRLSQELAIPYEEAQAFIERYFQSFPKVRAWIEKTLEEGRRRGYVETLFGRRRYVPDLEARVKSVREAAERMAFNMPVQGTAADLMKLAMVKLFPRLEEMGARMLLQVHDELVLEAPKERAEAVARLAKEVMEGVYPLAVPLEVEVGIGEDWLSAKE

CC(=O)OC1CC(n2cc(C)c(=O)[nH]c2=O)OC1COP(=O)(O)OP(=O)(O)OP(=O)(O)O (stereo not drawn) [3′-Ac-dTTP, 3′-O-acetyl-dTTP]
substrate for Klenow (exo-) DNA polymerase (incorporation into the primer) [1]: not a substrate | substrate for Taq DNA polymerase (Taq DNA polymerase): not substrates | overall PCR performance [2]: not as good as with natural dTTP | Concentration of unmodified dTTP ([3]; 2 min): 0 µM | Concentration of unmodified dTTP ([3]; 10 min): 5 µM | Concentration of unmodified dTTP ([3]; 20 min): 18 µM | cleavage of the 3′-acetyl group ([3]; PCR buffer, room temperature, after 24 hours of incubation): 6%

COC1(O[C@H]2C[C@H](n3cc(C)c(=O)[nH]c3=O)O[C@@H]2COP(=O)(O)OP(=O)(O)OP(=O)(O)O)CCOCC1 [3′-MTHP-dTTP]
substrate for Klenow (exo-) DNA polymerase (incorporation and extension) [1]: became substrates for enzyme | substrate for Klenow (exo-) DNA polymerase (incorporation into the primer) [1]: not substrates | Concentration of unmodified dTTP ([3]; 2 min): 2 µM | Concentration of unmodified dTTP ([3]; 10 min): 21 µM | Concentration of unmodified dTTP ([3]; 20 min): 47 µM

COCC(=O)O[C@H]1C[C@H](n2cc(C)c(=O)[nH]c2=O)O[C@@H]1COP(=O)(O)OP(=O)(O)OP(=O)(O)O [3′-O[CH3OAc]]
Concentration of unmodified dTTP ([3]; 2 min): 35 µM | Concentration of unmodified dTTP ([3]; 10 min): 140 µM | Concentration of unmodified dTTP ([3]; 20 min): 195 µM | cleavage of the 3′-ester group ([3]; PCR buffer, room temperature): 4%

Cc1cn([C@H]2C[C@H](OC(=O)COc3ccccc3)[C@@H](COP(=O)(O)OP(=O)(O)OP(=O)(O)O)O2)c(=O)[nH]c1=O [3′-O[PhOAc]]
Concentration of unmodified dTTP ([3]; 2 min): 50 µM | Concentration of unmodified dTTP ([3]; 10 min): 170 µM | Concentration of unmodified dTTP ([3]; 20 min): 209 µM | cleavage of the 3′-ester group ([3]; PCR buffer, room temperature): 10%

Nc1ncnc2c1ncn2C1CC(OC2CCCO2)C(COP(=O)(O)OP(=O)(O)OP(=O)(O)O)O1 (stereo not drawn) [3′-THF-dATP]
PCR performance (non-specific amplification products, specific amplicon formation) [4]: strong reduction of both non-specific amplification products and an increase of specific amplicon formation

Cc1cn([C@H]2C[C@H](OC3CCCO3)[C@@H](COP(=O)(O)OP(=O)(O)OP(=O)(O)O)O2)c(=O)[nH]c1=O (stereo partly drawn) [3′-THF-dTTP]
substrate for Klenow (exo-) DNA polymerase (incorporation and extension) [1]: became substrates for enzyme | substrate for Klenow (exo-) DNA polymerase (incorporation into the primer) [1]: not substrates | substrate for Taq DNA polymerase (Taq DNA polymerase): not substrates | Concentration of unmodified dTTP ([3]; 2 min): 7 µM | Concentration of unmodified dTTP ([3]; 10 min): 39 µM | Concentration of unmodified dTTP ([3]; 20 min): 57 µM

Cc1cn([C@H]2C[C@H](OC3CCCCO3)[C@@H](COP(=O)(O)OP(=O)(O)OP(=O)(O)O)O2)c(=O)[nH]c1=O (stereo partly drawn) [3′-THP-dTTP]
substrate for Klenow (exo-) DNA polymerase (incorporation and extension) [1]: became substrates for enzyme | substrate for Klenow (exo-) DNA polymerase (incorporation into the primer) [1]: not substrates | overall PCR performance [2]: not as good as with natural dTTP | Concentration of unmodified dTTP ([3]; 2 min): ≦1 μM | Concentration of unmodified dTTP ([3]; 10 min): 10 µM | Concentration of unmodified dTTP ([3]; 20 min): 16 µM
